In patent publication US20220338473A1, “USE OF BENZYL ALCOHOL AS A HERBICIDE” (INNOVI, priority 2019, published 2022):

Tests used:
Assay in all cases: Preventative activity (anti-germination), seeds on agar in Petri dish
Type in all cases: in vivo
Conditions in all cases: 0.35 g sprayed (benzyl alcohol pure, 700 L/Ha; glyphosate diluted at 0.5%)
Barley seeds = tested on: Barley seeds
Procedure: (§1) The assays were carried out on seeds sown on a Petri dish with respectively a control mode, an assay with benzyl alcohol and an assay with glyphosate herbicide (Gallup® super 360, Barclay).
(§2) The application of the product is carried out with a trigger spray bottle which makes it possible to spray 0.35 g of product per spraying, as microdroplets.
(§3) Seeds are placed on an agar gel in Petri dishes. 16 barley seeds, 24 rapeseed seeds, 18 wheat seeds, 10 maize seeds, 10 soybean seeds are positioned for each test.
(§4) The seeds are sprinkled either with 0.35 g water (equivalent 700 L/Ha) including 0.35 g pure benzyl alcohol (PanReac AppliChem—ITW Reagents) (equivalent 700 L/Ha pure benzyl alcohol), or with 0.35 g water for the control, or with 0.35 g glyphosate diluted at 0.5% for the glyphosate test.
(§5) The plants are observed at 0 and 11 days. The percentage of germination is the percentage of germinated seeds evaluated after 11 days.

Soybean seeds = tested on: Soybean seeds
Procedure: as §1, §2, §3, §4, §5

Rapeseed seeds = tested on: Rapeseed seeds
Procedure: as §1, §2, §3, §4, §5

Wheat seeds = tested on: Wheat seeds
Procedure: as §1, §2, §3, §4, §5

Maize seeds = tested on: Maize seeds
Procedure: as §1, §2, §3, §4, §5

Dandelion seeds = tested on: Dandelion seeds

Measured: Percentage of germination at 11 days

O=C(O)CNCP(=O)(O)O [Glyphosate, glyphosate, reference compound]
83%: Dandelion seeds
100%: all other assays above
